Test results published in ChEMBL document CHEMBL4673219, “Novel 5,6-disubstituted pyrrolo[2,3-d]pyrimidine derivatives as broad spectrum antiproliferative agents: Synthesis, cell based assays, kinase profile and molecular docking study” (Bioorg Med Chem, 2018).
Values joined by “and” are separate entries in the source; they are usually repeats but may differ in a detail not shown here. Equal entries are not always repeated.

Tests used:
UO-31 [1] = assay: Growth inhibition of human UO-31 cells incubated for 48 hrs by sulforhodamine B assay; assay type: functional
OVCAR-5 [2] = assay: Growth inhibition of human OVCAR-5 cells assessed as growth percentage at 0.01 uM incubated for 48 hrs by sulforhodamine B assay relative to control; assay type: functional; details: read-out: Activity
SW-620 = assay: Growth inhibition of human SW-620 cells assessed as growth percentage at 10 uM incubated for 48 hrs by sulforhodamine B assay relative to control; assay type: functional; details: read-out: Activity
SK-MEL-5 [3] = assay: Growth inhibition of human SK-MEL-5 cells assessed as growth percentage at 0.01 uM incubated for 48 hrs by sulforhodamine B assay relative to control; assay type: functional; details: read-out: Activity
HCC 2998 = assay: Growth inhibition of human HCC 2998 cells assessed as growth percentage at 10 uM incubated for 48 hrs by sulforhodamine B assay relative to control; assay type: functional; details: read-out: Activity
NCI-H23 = assay: Growth inhibition of human NCI-H23 cells assessed as growth percentage at 1 uM incubated for 48 hrs by sulforhodamine B assay relative to control; assay type: functional; details: read-out: Activity
786-0 [4] = assay: Growth inhibition of human 786-0 cells assessed as growth percentage at 100 uM incubated for 48 hrs by sulforhodamine B assay relative to control; assay type: functional; details: read-out: Activity
UO-31 [5] = assay: Growth inhibition of human UO-31 cells assessed as growth percentage at 10 uM incubated for 48 hrs by sulforhodamine B assay relative to control; assay type: functional; details: read-out: Activity
SK-MEL-5 [6] = assay: Growth inhibition of human SK-MEL-5 cells assessed as growth percentage at 10 uM incubated for 48 hrs by sulforhodamine B assay relative to control; assay type: functional; details: read-out: Activity
HCT-116 [7] = assay: Growth inhibition of human HCT-116 cells assessed as growth percentage at 10 uM incubated for 48 hrs by sulforhodamine B assay relative to control; assay type: functional; details: read-out: Activity
MDA-MB-231 = assay: Growth inhibition of human MDA-MB-231/ATCC cells assessed as growth percentage at 10 uM incubated for 48 hrs by sulforhodamine B assay relative to control; assay type: functional; details: read-out: Activity
786-0 [8] = assay: Growth inhibition of human 786-0 cells incubated for 48 hrs by sulforhodamine B assay; assay type: functional
A549 [9] = assay: Growth inhibition of human A549/ATCC cells assessed as growth percentage at 1 uM incubated for 48 hrs by sulforhodamine B assay relative to control; assay type: functional; details: read-out: Activity
UACC-257 = assay: Growth inhibition of human UACC-257 cells assessed as growth percentage at 1 uM incubated for 48 hrs by sulforhodamine B assay relative to control; assay type: functional; details: read-out: Activity
SNB-75 = assay: Growth inhibition of human SNB-75 cells assessed as growth percentage at 0.1 uM incubated for 48 hrs by sulforhodamine B assay relative to control; assay type: functional; details: read-out: Activity
HCT-116 [10] = assay: Growth inhibition of human HCT-116 cells incubated for 48 hrs by sulforhodamine B assay; assay type: functional; details: for CC50: read-out: LC50 (the source's name)
OVCAR-3 = assay: Growth inhibition of human OVCAR-3 cells assessed as growth percentage at 10 uM incubated for 48 hrs by sulforhodamine B assay relative to control; assay type: functional; details: read-out: Activity
U-251 = assay: Growth inhibition of human U-251 cells incubated for 48 hrs by sulforhodamine B assay; assay type: functional; details: for CC50: read-out: LC50 (the source's name)
HOP-92 = assay: Growth inhibition of human HOP-92 cells assessed as growth percentage at 0.01 uM incubated for 48 hrs by sulforhodamine B assay relative to control; assay type: functional; details: read-out: Activity
SF-295 = assay: Growth inhibition of human SF-295 cells assessed as growth percentage at 10 uM incubated for 48 hrs by sulforhodamine B assay relative to control; assay type: functional; details: read-out: Activity
Hs-578T = assay: Growth inhibition of human Hs-578T cells assessed as growth percentage at 0.01 uM incubated for 48 hrs by sulforhodamine B assay relative to control; assay type: functional; details: read-out: Activity
T47D = assay: Growth inhibition of human T47D cells assessed as growth percentage at 0.01 uM incubated for 48 hrs by sulforhodamine B assay relative to control; assay type: functional; details: read-out: Activity
RPMI-8226 [11] = assay: Growth inhibition of human RPMI-8226 cells assessed as growth percentage at 100 uM incubated for 48 hrs by sulforhodamine B assay relative to control; assay type: functional; details: read-out: Activity
SNB-19 = assay: Growth inhibition of human SNB-19 cells assessed as growth percentage at 0.1 uM incubated for 48 hrs by sulforhodamine B assay relative to control; assay type: functional; details: read-out: Activity
OVCAR-4 = assay: Growth inhibition of human OVCAR-4 cells assessed as growth percentage at 0.01 uM incubated for 48 hrs by sulforhodamine B assay relative to control; assay type: functional; details: read-out: Activity
OVCAR-5 [12] = assay: Growth inhibition of human OVCAR-5 cells assessed as growth percentage at 0.1 uM incubated for 48 hrs by sulforhodamine B assay relative to control; assay type: functional; details: read-out: Activity
RPMI-8226 [13] = assay: Growth inhibition of human RPMI-8226 cells assessed as growth percentage at 10 uM incubated for 48 hrs by sulforhodamine B assay relative to control; assay type: functional; details: read-out: Activity
A549 [14] = assay: Growth inhibition of human A549/ATCC cells assessed as growth percentage at 10 uM incubated for 48 hrs by sulforhodamine B assay relative to control; assay type: functional; details: read-out: Activity
TK-10 = assay: Growth inhibition of human TK-10 cells assessed as growth percentage at 100 uM incubated for 48 hrs by sulforhodamine B assay relative to control; assay type: functional; details: read-out: Activity
CCRF-CEM = assay: Growth inhibition of human CCRF-CEM cells assessed as growth percentage at 10 uM incubated for 48 hrs by sulforhodamine B assay relative to control; assay type: functional; details: read-out: Activity
ACHN = assay: Growth inhibition of human ACHN cells assessed as growth percentage at 100 uM incubated for 48 hrs by sulforhodamine B assay relative to control; assay type: functional; details: read-out: Activity
COLO 205 = assay: Growth inhibition of human COLO 205 cells assessed as growth percentage at 0.1 uM incubated for 48 hrs by sulforhodamine B assay relative to control; assay type: functional; details: read-out: Activity
[15] = AUC (0 to infinity) in Sprague-Dawley rat at 10 mg/kg, iv measured up to 24 hrs by LC-MS/MS analysis; assay type: ADME, organism-based; parameters: route intravenous, dose 10 mg/kg, time <=24; details: in vivo
[16] = Clearance in Sprague-Dawley rat at 10 mg/kg, iv measured up to 24 hrs by LC-MS/MS analysis; assay type: ADME, organism-based; details: in vivo
[17] = Terminal half life in Sprague-Dawley rat at 10 mg/kg, po measured up to 24 hrs by LC-MS/MS analysis; assay type: ADME, organism-based; details: in vivo, read-out: beta t1/2
HL-60(TB) = assay: Growth inhibition of human HL-60(TB) cells assessed as growth percentage at 0.01 uM incubated for 48 hrs by sulforhodamine B assay relative to control; assay type: functional; details: read-out: Activity
[18] = target: Tyrosine-protein kinase Yes (Homo sapiens) (UniProt P07947); assay: Inhibition of human YES1 at 10 uM using myelin basic protein as substrate incubated for 40 mins in presence of [gamma33P]ATP by scintillation counting method relative to control
Sequence of Tyrosine-protein kinase Yes (Homo sapiens) (P07947 2-543 limits assumed): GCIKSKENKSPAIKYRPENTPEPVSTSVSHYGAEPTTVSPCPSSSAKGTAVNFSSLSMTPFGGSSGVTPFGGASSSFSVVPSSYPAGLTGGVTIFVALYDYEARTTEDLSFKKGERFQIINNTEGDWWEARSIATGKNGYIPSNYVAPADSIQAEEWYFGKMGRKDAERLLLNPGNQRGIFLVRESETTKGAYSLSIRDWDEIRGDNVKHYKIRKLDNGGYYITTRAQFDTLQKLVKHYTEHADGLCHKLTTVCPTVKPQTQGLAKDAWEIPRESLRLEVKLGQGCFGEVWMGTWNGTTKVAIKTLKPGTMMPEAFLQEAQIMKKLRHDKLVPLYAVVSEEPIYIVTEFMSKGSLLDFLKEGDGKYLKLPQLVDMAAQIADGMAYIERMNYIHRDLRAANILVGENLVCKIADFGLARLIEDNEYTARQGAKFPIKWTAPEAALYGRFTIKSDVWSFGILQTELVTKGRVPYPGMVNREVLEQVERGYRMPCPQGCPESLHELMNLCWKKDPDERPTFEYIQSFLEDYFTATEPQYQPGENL

With `Nc1nc2[nH]c(CN3CCN(c4cc(Cl)cc(Cl)c4)CC3)c(CN3CCN(c4cc(Cl)cc(Cl)c4)CC3)c2c(=O)[nH]1` the GI50 (UO-31 [1]; 48 h) was 1170 nM and 11700 nM, the TGI (UO-31 [1]; 48 h) was 31800 nM and 3180 nM and the growth at 0.01 µM (OVCAR-5 [2]) was 87%. For the same molecule, the growth at 10 µM (SW-620) was -16.3%, the growth at 0.01 µM (SK-MEL-5 [3]) was 96% and the growth at 10 µM (HCC 2998) was 24%. It also gave a growth at 1 µM (NCI-H23) of 103%, a growth at 100 µM (786-0 [4]) of -41% and a growth at 10 µM (UO-31 [5]) of 75.1%. For the same molecule, the growth at 10 µM (SK-MEL-5 [6]) was 91%, the growth at 10 µM (HCT-116 [7]) was -10.2% and the growth at 10 µM (MDA-MB-231) was 71.9%. The GI50 (786-0 [8]) was 1570 nM, the TGI (786-0 [8]) was 3180 nM and the growth at 1 µM (A549 [9]) was 92%. For the same molecule, the growth at 1 µM (UACC-257) was 93%, the growth at 0.1 µM (SNB-75) was 89% and the GI50 (HCT-116 [10]; Homo sapiens, HCT-116, 48 h) was 1630 nM. The TGI (HCT-116 [10]; Homo sapiens, HCT-116, 48 h) was 3170 nM, the CC50 (HCT-116 [10]; Homo sapiens, HCT-116, 48 h) was 6180 nM and the growth at 10 µM (OVCAR-3) was 89.7%. For the same molecule, the GI50 (U-251; Homo sapiens, U-251, 48 h) was 1670 nM, the TGI (U-251; Homo sapiens, U-251, 48 h) was 3140 nM and the CC50 (U-251; Homo sapiens, U-251, 48 h) was 5900 nM. For the same molecule, the growth at 0.01 µM (HOP-92) was 85%, the growth at 10 µM (SF-295) was 98.4% and the growth at 0.01 µM (Hs-578T) was 89%. For the same molecule, the growth at 0.01 µM (T47D) was 91%, the growth at 100 µM (RPMI-8226 [11]) was -19% and the growth at 0.1 µM (SNB-19) was 91%. The growth at 0.01 µM (OVCAR-4) was 95%, the growth at 0.1 µM (OVCAR-5 [12]) was 94% and the growth at 10 µM (RPMI-8226 [13]) was 38.4%. The growth at 10 µM (A549 [14]) was 72.7%, the growth at 100 µM (TK-10) was -69% and the growth at 10 µM (CCRF-CEM) was 45.1%. For the same molecule, the growth at 100 µM (ACHN) was -26% and the growth at 0.1 µM (COLO 205) was 101%.
For `CCCCCCCC(=O)Nc1nc2[nH]c(CN3CCN(Cc4cccc(F)c4)CC3)c(CN3CCN(Cc4cccc(F)c4)CC3)c2c(=O)[nH]1`, the AUC(0-inf) [15] was 498 ng·h/mL, the GI50 (UO-31 [1]; 48 h) was 3800 nM and 380 nM and the LC50 (concentration killing 50% of cells) (UO-31 [1]; Homo sapiens, UO-31) was 4810 nM. The TGI (UO-31 [1]; Homo sapiens, UO-31, 48 h) was 1700 nM, the growth at 10 µM (SW-620) was -78.5% and the growth at 0.01 µM (SK-MEL-5 [3]) was 100%. For the same molecule, the clearance [16] was 342 mL/min/kg, the growth at 10 µM (HCC 2998) was -81.8% and the growth at 1 µM (NCI-H23) was 92%. It also gave a growth at 100 µM (786-0 [4]) of -95%, a growth at 10 µM (UO-31 [5]) of -96.5% and a growth at 10 µM (SK-MEL-5 [6]) of 33.5%. For the same molecule, the growth at 10 µM (HCT-116 [7]) was -96.7%, the half-life [17] was 1.66 h and the growth at 10 µM (MDA-MB-231) was -83%. For the same molecule, the GI50 (786-0 [8]) was 1540 nM, the LC50 (concentration killing 50% of cells) (786-0 [8]) was 5670 nM and the TGI (786-0 [8]) was 2950 nM. For the same molecule, the growth at 1 µM (A549 [9]) was 8%, the growth at 1 µM (UACC-257) was -48% and the growth at 0.1 µM (SNB-75) was 82%. It also gave a GI50 (HCT-116 [10]; 48 h) of 170 nM, a TGI (HCT-116 [10]; 48 h) of 320 nM and a CC50 (HCT-116 [10]; 48 h) of 600 nM. The GI50 (HCT-116 [10]; Homo sapiens, HCT-116, 48 h) was 171 nM, the TGI (HCT-116 [10]; Homo sapiens, HCT-116, 48 h) was 321 nM and the CC50 (HCT-116 [10]; Homo sapiens, HCT-116, 48 h) was 601 nM. It also gave a growth at 10 µM (OVCAR-3) of -95%, a GI50 (U-251; 48 h) of 170 nM and a TGI (U-251; 48 h) of 330 nM. For the same molecule, the CC50 (U-251; 48 h) was 610 nM, the GI50 (U-251; Homo sapiens, U-251, 48 h) was 172 nM and the TGI (U-251; Homo sapiens, U-251, 48 h) was 325 nM. The CC50 (U-251; Homo sapiens, U-251, 48 h) was 614 nM, the growth at 0.01 µM (HL-60(TB)) was 98% and the growth at 0.01 µM (HOP-92) was 90%. It also gave a growth at 10 µM (SF-295) of -69.2%, a growth at 0.01 µM (Hs-578T) of 97% and an inhibition [18] of 45.5%. For the same molecule, the growth at 0.01 µM (T47D) was 95%, the growth at 100 µM (RPMI-8226 [11]) was 1% and the growth at 0.1 µM (SNB-19) was 98%. For the same molecule, the growth at 0.01 µM (OVCAR-4) was 98%, the growth at 10 µM (RPMI-8226 [13]) was -47.3% and the growth at 10 µM (A549 [14]) was -74.7%. The growth at 100 µM (TK-10) was -91%, the growth at 10 µM (CCRF-CEM) was -25.8% and the growth at 0.1 µM (COLO 205) was 92%.
